Results on twelve compounds are retold here after ChEMBL document CHEMBL1124880 (J Med Chem, 1990).

As a reminder, the IC50 is the midpoint of a concentration-inhibition curve. As a reminder, the Ki is the equilibrium dissociation constant of an inhibitor or competing ligand from its target. A lower Ki goes with a stronger hold on the target.

Molecules are shown by their SMILES. Bounds are passed on as bounds.

Test [1] addresses T1, Adenosine receptor A1 (Rattus norvegicus, UniProt P25099).
T1 sequence (P25099 whole entry): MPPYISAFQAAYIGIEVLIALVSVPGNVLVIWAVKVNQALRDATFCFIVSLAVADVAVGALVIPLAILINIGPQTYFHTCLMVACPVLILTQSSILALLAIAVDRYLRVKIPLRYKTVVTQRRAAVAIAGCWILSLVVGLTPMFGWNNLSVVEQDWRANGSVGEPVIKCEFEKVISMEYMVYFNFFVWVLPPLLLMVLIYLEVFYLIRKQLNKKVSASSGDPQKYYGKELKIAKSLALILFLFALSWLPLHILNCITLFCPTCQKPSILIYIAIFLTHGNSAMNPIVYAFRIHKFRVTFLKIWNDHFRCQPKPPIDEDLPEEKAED
The experiment in a line: Evaluated for the binding affinity towards the Adenosine A1 receptor in cerebral cortices of Sprague-Dawley male rats using [3H]CHA as radioligand.

The target of test [2] is Adenosine receptor A1 (Rattus norvegicus) (UniProt P25099). In words: Binding affinity for Adenosine A1 receptor in cerebral cortices of Sprague-Dawley male rats using [3H]CHA.
For test [3], the species on record is Rattus norvegicus. The experiment in a line: Minimal effective dose in an rat anti-immobility effect using behavioral despair test. The format is functional. As to conditions: read-out: MED.
Test [4] addresses T2, Adenosine A2 receptor (Rattus norvegicus, UniProt P29276+P30543).
The species named for test [5] is Rattus norvegicus. In words: Evaluated for Ca++ independent phosphodiesterase activity. Type of test: functional.
The next test deals with Phosphodiesterase 1 (Rattus norvegicus, UniProt Q63421+Q9EPR9+Q01066). The experiment in a line: Evaluated for Ca++ dependent phosphodiesterase activity. Type of test: functional.
For test [6], the target named is T1, Adenosine receptor A1. In words: Binding affinity towards the adenosine A1 receptor in cerebral cortices of Sprague-Dawley male rats using [3H]CHA as radioligand.
The target of test [7] is T1, Adenosine receptor A1. The experiment in a line: Binding affinity for Adenosine A1 receptor in cerebral cortices of Sprague-Dawley male rats using [3H]-CHA.
The target in test [8] is T1, Adenosine receptor A1.
Test [9] addresses T2, Adenosine A2 receptor. In words: Binding affinity for Adenosine A2 receptor in corpora striata of rats using [3H]NECA. Type of test: protein assay.

With `CC(C)Nc1ncnc2c1ncn2[C@@H]1O[C@H](CO)[C@@H](O)[C@H]1O`, the 50% inhibitory concentration (IC50) on Adenosine receptor A1 [1] stood at 3.7 µM.

In turn, `CCc1nnc2c(N(C)C)nc3ccccc3n12` gave a concentration for half-maximal inhibition (IC50) in [2] of 12 µM. For the same compound, in the test listed under Rattus norvegicus [3], the minimal effective dose is ≤ 3.2 mg/kg.

`Nc1nc2ccc(Cl)cc2n2c(C(F)(F)F)nnc12`: the IC50 is 0.044 µM on Adenosine A2 receptor [4], 2 µM in the test filed under Rattus norvegicus [5], > 10 µM on Phosphodiesterase 1 and 0.065 µM on Adenosine receptor A1 [6]. Further, the minimal effective dose in the test filed under Rattus norvegicus [3] was determined as 3.2 mg/kg.

With `CCc1nnc2c(NC(C)C)nc3c(Cl)cccc3n12`, the IC50 was > 100 µM against Adenosine A2 receptor [4], > 10 µM in the test listed under Rattus norvegicus [5], >> 10 uM at Phosphodiesterase 1 and 6.8 µM on Adenosine receptor A1 [6]. Besides, in the test filed under Rattus norvegicus [3], the minimal effective dose is ≤ 32 mg/kg.

Turning to `COc1ccc2c(c1)nc(N)c1nncn12`, the IC50 was 0.1 µM against Adenosine A2 receptor [4], > 10 µM in the test filed under Rattus norvegicus [5], >> 10 uM against Phosphodiesterase 1 and 1.4 µM at Adenosine receptor A1 [6]. For the same compound, the minimal effective dose in the test listed under Rattus norvegicus [3] is 3.2 mg/kg.

Turning to `CC(C)Nc1nc2ccc(F)cc2n2c(C(F)(F)F)nnc12`, the IC50 came to 3.9 µM at Adenosine A2 receptor [4], 0.37 µM in the test listed under Rattus norvegicus [5], 24 µM against Phosphodiesterase 1 and 0.057 µM on Adenosine receptor A1 [6]. Further, the minimal effective dose in the test listed under Rattus norvegicus [3] was ≤ 3.2 mg/kg.

Consider `CCc1nnc2c(N)nc3ccccc3n12`, for which the IC50 against Adenosine A2 receptor [4] is 0.062 µM; in the test listed under Rattus norvegicus [5] it was 12 µM; on Phosphodiesterase 1, 2 µM; at Adenosine receptor A1 [6], 0.43 µM. In addition, the minimal effective dose in the test listed under Rattus norvegicus [3] was determined as 3.2 mg/kg.

`Nc1nc2ccc(Cl)cc2n2c(-c3ccc(Cl)cc3)nnc12`: the IC50 at Adenosine receptor A1 [7] amounted to 0.51 µM; on Adenosine A2 receptor [4], 0.033 µM.

As to `CCNc1nc2ccccc2n2c(CC)nnc12`, the IC50 on Adenosine A2 receptor [4] was found to be 9.5 µM; in the test listed under Rattus norvegicus [5], 2.5 µM; against Phosphodiesterase 1, 20 µM; at Adenosine receptor A1 [6], 1.8 µM. In addition, the minimal effective dose in the test listed under Rattus norvegicus [3] was 3.2 mg/kg.

As to `CC(C)Cn1c(=O)n(C)c(=O)c2nc[nH]c21` [ISOBUTYLMETHYLXANTHINE], the IC50 against Adenosine A2 receptor [4] worked out at 13 µM; in the test listed under Rattus norvegicus [5] it was 3.5 µM; against Phosphodiesterase 1, 0.1 µM; at Adenosine receptor A1 [6], 7 µM. For the same compound, the minimal effective dose in the test filed under Rattus norvegicus [3] was > 32 mg/kg.

Consider `OC[C@H]1O[C@@H](n2cnc3c(Nc4ccccc4)ncnc32)[C@H](O)[C@@H]1O` [N6-PHENYLADENOSINE], for which the Ki on Adenosine receptor A1 [8] stood at 0.003 µM; on Adenosine A2 receptor [9], 50 µM. This compound displayed an IC50 at Adenosine receptor A1 [1] of 0.0065 µM.

As for `COc1ccc(C2CNC(=O)C2)cc1OC1CCCC1` (stereo not drawn) [ROLIPRAM], the IC50 on Adenosine A2 receptor [4] is > 100 µM; in the test filed under Rattus norvegicus [5], 0.25 µM; against Phosphodiesterase 1 it was > 100 µM; at Adenosine receptor A1 [6] it was > 100 µM. Further, in the test listed under Rattus norvegicus [3], the minimal effective dose is > 32 mg/kg.
